{"source": "PubChem BioAssay (NCI)", "assay_in_all_cases": "NCI-60 cell line screen, 384-well format", "key": {"[1]": {"tested_on": "NCI-H23 lung"}, "[2]": {"tested_on": "NCI-H322M lung"}, "[3]": {"tested_on": "NCI-H460 NSCLC"}, "[4]": {"tested_on": "NCI-H522 lung"}, "[5]": {"tested_on": "NCI/ADR-RES ovarian"}, "[6]": {"tested_on": "OVCAR-3 ovarian"}, "[7]": {"tested_on": "OVCAR-4 ovarian"}, "[8]": {"tested_on": "OVCAR-5 ovarian"}, "[9]": {"tested_on": "OVCAR-8 ovarian"}, "[10]": {"tested_on": "PC-3 prostate"}, "[11]": {"tested_on": "RPMI-8226 leukemia"}, "[12]": {"tested_on": "RXF 393 renal"}, "[13]": {"tested_on": "SF-268 CNS"}, "[14]": {"tested_on": "SF-295 CNS"}, "[15]": {"tested_on": "SF-539 CNS"}, "[16]": {"tested_on": "SK-MEL-2 melanoma"}, "[17]": {"tested_on": "SK-MEL-28 melanoma"}, "[18]": {"tested_on": "SK-MEL-5 melanoma"}, "[19]": {"tested_on": "SK-OV-3 ovarian"}, "[20]": {"tested_on": "SN12C renal"}, "[21]": {"tested_on": "SNB-19 CNS"}, "[22]": {"tested_on": "SNB-75 CNS"}, "[23]": {"tested_on": "SR leukemia"}, "[24]": {"tested_on": "SW-620 colon"}, "[25]": {"tested_on": "T-47D breast"}, "[26]": {"tested_on": "TK-10 renal"}, "[27]": {"tested_on": "U251 glioblastoma"}, "[28]": {"tested_on": "UACC-257 melanoma"}, "[29]": {"tested_on": "UACC-62 melanoma"}, "[30]": {"tested_on": "UO-31 renal"}}, "note": "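The concentration for 50% growth inhibition is given as GI50. TGI is the concentration that stops growth completely.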", "data": [{"molecule": "Nc1nc(Cl)nc2c1ncn2C1OC(CO)C(O)C1F", "note": "(stereo unspecified)", "values": [{"measurement": "TGI", "setting": "[1]", "result": 114, "unit": "nM"}, {"measurement": "GI50", "setting": "[2]", "result": 1850, "unit": "nM"}, {"measurement": "TGI", "setting": "[2]", "result": "> 100", "unit": "µM"}, {"measurement": "GI50", "setting": "[3]", "result": 177, "unit": "nM"}, {"measurement": "TGI", "setting": "[3]", "result": 376, "unit": "nM"}, {"measurement": "GI50", "setting": "[4]", "result": 165, "unit": "nM"}, {"measurement": "TGI", "setting": "[4]", "result": "> 28.9", "unit": "µM"}, {"measurement": "GI50", "setting": "[5]", "result": 35.7, "unit": "nM"}, {"measurement": "TGI", "setting": "[5]", "result": 1240, "unit": "nM"}, {"measurement": "GI50", "setting": "[6]", "result": 550, "unit": "nM"}, {"measurement": "TGI", "setting": "[6]", "result": "> 100", "unit": "µM"}, {"measurement": "GI50", "setting": "[7]", "result": "> 100", "unit": "µM"}, {"measurement": "TGI", "setting": "[7]", "result": "> 100", "unit": "µM"}, {"measurement": "GI50", "setting": "[8]", "result": 515, "unit": "nM"}, {"measurement": "TGI", "setting": "[8]", "result": "> 100", "unit": "µM"}, {"measurement": "GI50", "setting": "[9]", "result": 31.5, "unit": "nM"}, {"measurement": "TGI", "setting": "[9]", "result": "> 100", "unit": "µM"}, {"measurement": "GI50", "setting": "[10]", "result": "> 20.9", "unit": "µM"}, {"measurement": "TGI", "setting": "[10]", "result": "> 100", "unit": "µM"}, {"measurement": "GI50", "setting": "[11]", "result": 1730, "unit": "nM"}, {"measurement": "TGI", "setting": "[11]", "result": 3.78, "unit": "µM"}, {"measurement": "GI50", "setting": "[12]", "result": 7.36, "unit": "µM"}, {"measurement": "TGI", "setting": "[12]", "result": "> 100", "unit": "µM"}, {"measurement": "GI50", "setting": "[13]", "result": 170, "unit": "nM"}, {"measurement": "TGI", "setting": "[13]", "result": 692, "unit": "nM"}, {"measurement": "GI50", "setting": "[14]", "result": 724, "unit": "nM"}, {"measurement": "TGI", "setting": "[14]", "result": 1610, "unit": "nM"}, {"measurement": "GI50", "setting": "[15]", "result": 612, "unit": "nM"}, {"measurement": "TGI", "setting": "[15]", "result": 1820, "unit": "nM"}, {"measurement": "GI50", "setting": "[16]", "result": 304, "unit": "nM"}, {"measurement": "TGI", "setting": "[16]", "result": 697, "unit": "nM"}, {"measurement": "GI50", "setting": "[17]", "result": 106, "unit": "nM"}, {"measurement": "TGI", "setting": "[17]", "result": "> 100", "unit": "µM"}, {"measurement": "GI50", "setting": "[18]", "result": 61.6, "unit": "nM"}, {"measurement": "TGI", "setting": "[18]", "result": 160, "unit": "nM"}, {"measurement": "GI50", "setting": "[19]", "result": 315, "unit": "nM"}, {"measurement": "TGI", "setting": "[19]", "result": "> 100", "unit": "µM"}, {"measurement": "GI50", "setting": "[20]", "result": 56.1, "unit": "nM"}, {"measurement": "TGI", "setting": "[20]", "result": 401, "unit": "nM"}, {"measurement": "GI50", "setting": "[21]", "result": 72.6, "unit": "nM"}, {"measurement": "GI50", "setting": "[22]", "result": 1260, "unit": "nM"}, {"measurement": "TGI", "setting": "[22]", "result": 7.99, "unit": "µM"}, {"measurement": "GI50", "setting": "[23]", "result": 212, "unit": "nM"}, {"measurement": "TGI", "setting": "[23]", "result": 380, "unit": "nM"}, {"measurement": "GI50", "setting": "[24]", "result": 401, "unit": "nM"}, {"measurement": "TGI", "setting": "[24]", "result": "> 100", "unit": "µM"}, {"measurement": "GI50", "setting": "[25]", "result": 2850, "unit": "nM"}, {"measurement": "TGI", "setting": "[25]", "result": "> 100", "unit": "µM"}, {"measurement": "GI50", "setting": "[26]", "result": 532, "unit": "nM"}, {"measurement": "TGI", "setting": "[26]", "result": "> 100", "unit": "µM"}, {"measurement": "GI50", "setting": "[27]", "result": 259, "unit": "nM"}, {"measurement": "TGI", "setting": "[27]", "result": 2700, "unit": "nM"}, {"measurement": "GI50", "setting": "[28]", "result": 412, "unit": "nM"}, {"measurement": "GI50", "setting": "[29]", "result": 208, "unit": "nM"}, {"measurement": "TGI", "setting": "[29]", "result": 476, "unit": "nM"}, {"measurement": "GI50", "setting": "[30]", "result": 234, "unit": "nM"}]}]}
